Some test systems named below: TK-10 renal; U251 CNS; HT29 colon; MALME-3M melanoma; RXF 393 renal; OVCAR-5 ovarian; KM12 colon; SF-268 CNS; MCF7 breast; SNB-75 CNS.
Experiment in all cases: NCI anticancer screen, dose series, 48 h

Experimental findings from PubChem BioAssay (NCI) are described below.

Several values for one entry are separate records, joined by “and”; a condition that tells them apart may be missing. Equal entries are not always repeated.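 Results reflect a 48-hour exposure of cells in 96-well plates to compound at five concentrations. GI50: concentration for 50% inhibition of growth. The concentration for full growth arrest is given as TGI.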

`CCCCNC(=O)Oc1ccc(/C(=C(/C)Cc2ccc(OC)cc2)c2ccc(OCCN3CCCC3)cc2)cc1`: the GI50 with TK-10 renal is 4.31 µM; in the experiment with U251 CNS it was 1.82 µM; in the experiment with HT29 colon it was 1.89 µM; with MALME-3M melanoma it was 1.7 µM; in the experiment on RXF 393 renal it was 2.07 µM; with OVCAR-5 ovarian it was 3.6 µM. Further, the GI50 in the experiment with KM12 colon is 2.03 µM; in the experiment with SF-268 CNS it was 1.98 µM; in the experiment on MCF7 breast, 0.655 µM; in the experiment on SNB-75 CNS, 1.56 µM. Moreover, the TGI with TK-10 renal was 17.8 µM; in the experiment with U251 CNS, 3.31 µM; in the experiment on HT29 colon it was 3.85 µM; in the experiment on MALME-3M melanoma, 3.28 µM; in the experiment on RXF 393 renal, 3.79 µM; in the experiment on OVCAR-5 ovarian, 12.7 µM. Also, the TGI in the experiment on KM12 colon worked out at 4.49 µM; in the experiment on SF-268 CNS, 4.4 µM; in the experiment with MCF7 breast it was 2.51 µM; with SNB-75 CNS, 4.5 µM.

For the compound `NCCOc1ccccc1/C=C1\c2ccccc2-c2ccc([N+](=O)[O-])cc21`, the GI50 was 1.38 µM in the experiment with U251 CNS; 1.42 µM with HT29 colon; 1.5 µM in the experiment with MALME-3M melanoma; 1.6 µM in the experiment with RXF 393 renal; 1.61 µM with OVCAR-5 ovarian; 1.55 µM in the experiment on KM12 colon. The results for the GI50 in the experiment with SF-268 CNS, with MCF7 breast and in the experiment on SNB-75 CNS were 1.58 µM, 0.805 µM and 1.28 µM, respectively. The TGI worked out at 2.74 µM in the experiment on U251 CNS; 2.84 µM in the experiment on HT29 colon; 2.91 µM in the experiment on MALME-3M melanoma; 3.1 µM in the experiment on RXF 393 renal; 3.06 µM in the experiment with OVCAR-5 ovarian; 2.94 µM with KM12 colon. For the same compound, the TGI in the experiment with SF-268 CNS stood at 3.15 µM; in the experiment with MCF7 breast it was 2.25 µM; in the experiment with SNB-75 CNS, 2.55 µM.

With `COc1ccc(/C=C2\CN(Cc3cn(CCNc4ccnc5cc(Cl)ccc45)nn3)C/C(=C\c3ccc(OC)c(OC)c3)C2=O)cc1OC`, the GI50 was 4.96 µM with TK-10 renal; 3.2 µM in the experiment on U251 CNS; 3.13 µM with HT29 colon; 2.78 µM with MALME-3M melanoma; 1.81 µM in the experiment on RXF 393 renal; 4.55 µM with OVCAR-5 ovarian. Also, the GI50 is 1.87 µM in the experiment with KM12 colon, 3.36 µM with SF-268 CNS, 3.3 µM in the experiment with MCF7 breast and 6.67 µM with SNB-75 CNS. In addition, the TGI in the experiment with TK-10 renal worked out at 22 µM; with U251 CNS it was 27.7 µM; with HT29 colon, 8.82 µM; in the experiment on MALME-3M melanoma, 6.19 µM; in the experiment on RXF 393 renal, 3.62 µM; in the experiment on OVCAR-5 ovarian, 21.5 µM. Moreover, the TGI amounted to 3.6 µM in the experiment with KM12 colon, 21.5 µM in the experiment on SF-268 CNS, 16 µM in the experiment with MCF7 breast and 40.7 µM with SNB-75 CNS.

`CCCCN(CCCC)CCC(O)c1cc2c(Cl)cc(Cl)cc2c2cc(C(F)(F)F)ccc12` (stereo unspecified): the TGI in the experiment on TK-10 renal stood at 27.6 µM; in the experiment with U251 CNS, 31.7 µM; in the experiment on HT29 colon, 34.9 µM; in the experiment with MALME-3M melanoma, 30 µM; with OVCAR-5 ovarian, 26 µM; in the experiment with SF-268 CNS, 24.4 µM. Further, the TGI in the experiment with MCF7 breast came out at 24.9 µM; in the experiment on SNB-75 CNS, 25.3 µM.

`C[C@]12CC[C@H]3[C@@H](C[C@@H]4SC(Nc5ccccc5)=N[C@@]45CC(O)CC[C@]35C)[C@@H]1CCC2O` (stereo partly specified): the GI50 in the experiment with TK-10 renal is 2.91 µM; in the experiment with U251 CNS, 1.36 µM; in the experiment on MALME-3M melanoma, 2.19 µM; in the experiment with RXF 393 renal, 0.798 µM; in the experiment with OVCAR-5 ovarian it was 2.68 µM; with KM12 colon, 1.68 µM. The GI50 in the experiment with SF-268 CNS was 1.66 µM; in the experiment on MCF7 breast, 1.8 µM; in the experiment on SNB-75 CNS, 1.49 µM. In addition, the TGI in the experiment on TK-10 renal amounted to 6.63 µM; in the experiment on U251 CNS it was 2.79 µM; with MALME-3M melanoma, 5.89 µM; in the experiment on RXF 393 renal, 2.28 µM; in the experiment on OVCAR-5 ovarian, 7.86 µM; in the experiment on KM12 colon, 3.12 µM. For the same compound, the TGI with SF-268 CNS came out at 3.32 µM; in the experiment with MCF7 breast it was 4.73 µM; in the experiment on SNB-75 CNS, 3.05 µM.

Consider `Oc1ccc(CCNCc2cc3c(cc2Br)OCO3)cc1`, for which the TGI in the experiment with TK-10 renal, with U251 CNS, in the experiment with HT29 colon, in the experiment on MALME-3M melanoma, in the experiment on RXF 393 renal and with OVCAR-5 ovarian was greater than 100 µM throughout. The TGI in the experiment on SF-268 CNS was greater than 100 µM; in the experiment on MCF7 breast it was greater than 100 µM; in the experiment with SNB-75 CNS, 84.8 µM.

Turning to `O=c1c(Br)cc2c(-c3ccccc3)c3cc(Br)c(O)c(Br)c3oc-2c1Br`, the TGI is greater than 100 µM in the experiment on TK-10 renal; greater than 100 µM in the experiment with U251 CNS; 39.4 µM in the experiment with HT29 colon; greater than 100 µM in the experiment with MALME-3M melanoma; greater than 100 µM in the experiment on RXF 393 renal; greater than 100 µM in the experiment with OVCAR-5 ovarian. Besides, the TGI in the experiment with KM12 colon, in the experiment on SF-268 CNS and in the experiment on MCF7 breast was greater than 100 µM each time.

For the compound `Cc1ccc(C2=C(c3ccccc3)C(c3ccccc3)Oc3ccc(C)cc32)cc1` (stereo unspecified), the GI50 in the experiment with TK-10 renal was 13.7 µM; with U251 CNS, 14.8 µM; in the experiment with MALME-3M melanoma it was 23.1 µM; with RXF 393 renal, 3.37 µM; in the experiment with OVCAR-5 ovarian, 2.87 µM; in the experiment on KM12 colon it was 5.5 µM. Besides, the GI50 in the experiment on SF-268 CNS is 13.2 µM; with MCF7 breast, 3.33 µM. Also, the TGI in the experiment with TK-10 renal was found to be 32.4 µM; in the experiment on U251 CNS it was 28.5 µM; with MALME-3M melanoma, 48.3 µM; in the experiment with RXF 393 renal, 13.3 µM; in the experiment with OVCAR-5 ovarian, 8.64 µM; in the experiment with KM12 colon it was 23.6 µM. The TGI came out at 38.7 µM with SF-268 CNS and 13.1 µM with MCF7 breast.

`C=C(CC(=O)O)C(=O)O` (tested in a mixture with another compound): the GI50 was greater than 50 µg/mL with TK-10 renal; greater than 50 µg/mL in the experiment with U251 CNS; greater than 50 µg/mL in the experiment with HT29 colon; greater than 50 µg/mL in the experiment with MALME-3M melanoma; 10.2 µg/mL in the experiment with RXF 393 renal; greater than 50 µg/mL with OVCAR-5 ovarian. Besides, the GI50 in the experiment with KM12 colon, in the experiment with SF-268 CNS and with MCF7 breast was greater than 50 µg/mL throughout. The TGI in the experiment with TK-10 renal, with U251 CNS, in the experiment on HT29 colon, in the experiment on MALME-3M melanoma, in the experiment on RXF 393 renal and in the experiment with OVCAR-5 ovarian was greater than 50 µg/mL throughout. For the same compound, the TGI in the experiment with KM12 colon, with SF-268 CNS and with MCF7 breast was greater than 50 µg/mL each time.

For the compound `COc1cc(-c2cc(/C=C/C(=O)c3ccc(Cl)c(Cl)c3)[nH]n2)cc(OC)c1OC`, the GI50 was 8.34 µM in the experiment with TK-10 renal; 8.7 µM with U251 CNS; 11.5 µM with HT29 colon; 29.2 µM with MALME-3M melanoma; 2.7 µM with RXF 393 renal; 20.5 µM in the experiment with OVCAR-5 ovarian. Further, the GI50 with KM12 colon was 3.37 µM; in the experiment with SF-268 CNS it was 13.7 µM; with MCF7 breast it was 1.8 µM. Also, the TGI in the experiment with TK-10 renal is 43.2 µM; in the experiment on U251 CNS, 80.5 µM; in the experiment on HT29 colon it was greater than 100 µM; in the experiment on MALME-3M melanoma, greater than 100 µM; in the experiment on RXF 393 renal, 12.8 µM; with OVCAR-5 ovarian, greater than 100 µM. For the same compound, the TGI is greater than 100 µM in the experiment on KM12 colon, 63.3 µM with SF-268 CNS and greater than 100 µM in the experiment with MCF7 breast.

In the case of `C[n+]1c(-c2ccc(/C=N/NC(=O)c3ccc(C(=O)N/N=C/c4ccc(-c5cn6ccccc6[n+]5C)cc4)cc3)cc2)cn2ccccc21`, the GI50 with TK-10 renal was 228 µM; with U251 CNS it was 197 µM; in the experiment on HT29 colon it was 137 µM; in the experiment on MALME-3M melanoma, 208 µM; with RXF 393 renal, 174 µM; with OVCAR-5 ovarian, greater than 1000 µM. Moreover, the figures for the GI50 in the experiment with KM12 colon, in the experiment with SF-268 CNS and in the experiment on MCF7 breast were greater than 1000 µM, greater than 1000 µM and 343 µM, respectively. The TGI was 374 µM in the experiment on TK-10 renal; 347 µM in the experiment with U251 CNS; 266 µM in the experiment on HT29 colon; > 85.6 µM and 422 µM with MALME-3M melanoma; > 87.2 µM and 312 µM in the experiment on RXF 393 renal; greater than 1000 µM in the experiment on OVCAR-5 ovarian. In addition, the TGI in the experiment on KM12 colon, in the experiment with SF-268 CNS and in the experiment with MCF7 breast was greater than 1000 µM each time.

As to `N=C(N)c1ccc(NCCOCCNc2ccc(C(=N)N)cc2)cc1`, the GI50 in the experiment with TK-10 renal was greater than 100 µM; in the experiment with U251 CNS, 35.9 µM; in the experiment on HT29 colon it was 29.5 µM; with MALME-3M melanoma, 29.7 µM; in the experiment on OVCAR-5 ovarian, greater than 100 µM; with KM12 colon, 43.8 µM. Moreover, the GI50 in the experiment on SF-268 CNS is 45.3 µM; in the experiment on MCF7 breast it was 16 µM; in the experiment on SNB-75 CNS, 19.2 µM. Also, the TGI was greater than 100 µM in the experiment on TK-10 renal; greater than 100 µM with U251 CNS; greater than 100 µM in the experiment on HT29 colon; 87 µM with MALME-3M melanoma; greater than 100 µM in the experiment with OVCAR-5 ovarian; greater than 100 µM in the experiment on KM12 colon. Moreover, the TGI was greater than 100 µM in the experiment on SF-268 CNS, greater than 100 µM in the experiment with MCF7 breast and 81.3 µM in the experiment with SNB-75 CNS.

Take `CC(=O)C1=C(C)N(C)C2(O)C=CC(=O)C3=C(O)c4ccccc4C(=O)C312` (stereo unspecified): the GI50 in the experiment with TK-10 renal was 6.72 µM; in the experiment on U251 CNS, 14 µM; with HT29 colon it was 24.1 µM; in the experiment with MALME-3M melanoma it was 1.51 µM; in the experiment with OVCAR-5 ovarian, 22.1 µM; in the experiment on SF-268 CNS, 9.29 µM. Besides, the figures for the GI50 in the experiment on MCF7 breast and with SNB-75 CNS were 12.2 µM and 19.9 µM, respectively. Also, the TGI with TK-10 renal is 20.7 µM; in the experiment on U251 CNS, 31.4 µM; with HT29 colon it was greater than 100 µM; in the experiment on MALME-3M melanoma, 4.01 µM; with OVCAR-5 ovarian it was 66.1 µM; in the experiment with SF-268 CNS, 23.6 µM. Besides, the TGI in the experiment with MCF7 breast came to 36.1 µM; with SNB-75 CNS, 43.8 µM.
